Data published in the supplement of paper PMC11208160.

test: recombinant UMI read abundance after kanamycin selection (control-corrected) (log10(CPM+1)); higher = more efficient recombination; extreme values may be limits of the assay; sequences stand for … in AGTGCAGAGAAAATCGGCCAGTTTTCTCTGCCTGCAGTCCGCATGCCGTGGGACCCCTTGGGTTCTAACCTGTTGCCTAGATTTATGCAGCGGACTGCCTTTCTCCCAAAGTGATAAACCGG…AGGTTGGTTTCACT; site = the 11-nt donor
Outline: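 After plating on IPTG (0.07 mM) plus kanamycin, or unselected, in two replicates, recombinant UMIs were PCR-amplified across the donor–target junction and sequenced. The cells were Escherichia coli co-electroporated with a UMI-tagged donor and donor-binding-loop pair library and a target plasmid with a fixed target and T7-inducible IS621 bridge recombinase. Values are log10(CPM+1), with CPM averaged over replicates and scaled by control-derived factors.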
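Also: IS621 bridge recombinase in Escherichia coli cells against a fixed T5 target plasmid.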

Sequence	recombinant UMI read abundance (log10)
CCTAATACATGGACCGGTTTTCCCGGTAATCCGTATTTGGC (site CCTAATCCTGC)	0.00798
CCTAATACATGGACCGGTTTTCCCGGTAATCCGTATTTGGC (site CCTAATGCTGC)	0
CCTAATACATGGACCGGTTTTCCCGGTAATCCGTATTTGGC (site CCTAATTCTGC)	0
CCTAATACATGGACCGGTTTTCCCGGTAATCCGTATTTGGC (site CCTACTACTGC)	0.0125
CCTAATACATGGACCGGTTTTCCCGGTAATCCGTATTTGGC (site CCTAGTACTGC)	0
CCTAATACATGGACCGGTTTTCCCGGTAATCCGTATTTGGC (site CCTATTACTGC)	0
CCTAATACATGGACCGGTTTTCCCGGTAATCCGTATTTGGC (site CCTCATACTGC)	0
CCTAATACATGGACCGGTTTTCCCGGTAATCCGTATTTGGC (site CCTGATACTGC)	0.00582
CCTAATACATGGACCGGTTTTCCCGGTAATCCGTATTTGGC (site CCTTATACTGC)	0
CCTAATACATGGACCGGTTTTCCCGGTAATCCGTATTTGGC (site CGTAATACTGC)	0
CCTAATACATGGACCGGTTTTCCCGGTAATCCGTATTTGGC (site CTTAATACTGC)	0
CCTAATACATGGACCGGTTTTCCCGGTAATCCGTATTTGGC (site GCTAATACTGC)	0
CCTAATACATGGACCGGTTTTCCCGGTAATCCGTATTTGGC (site TCTAATACTGC)	0
CCTAATTCATGGACCGGTTTTCCCGGTAATCCGTATTTGAT (site CCTAATTCTAT)	0
CCTACAGCATGGACCGGTTTTCCCGGTAATCCGTATTTGAT (site CCTAAAGCTAT)	0
CCTACAGCATGGACCGGTTTTCCCGGTAATCCGTATTTGAT (site CCTACAGCTAT)	0.00631
CCTACAGCATGGACCGGTTTTCCCGGTAATCCGTATTTGAT (site CCTAGAGCTAT)	0
CCTACAGCATGGACCGGTTTTCCCGGTAATCCGTATTTGAT (site CCTATAGCTAT)	0.002
CCTAGAGCATGGACCGGTTTTCCCGGTAATCCGTATTTGAT (site CCTAAAGCTAT)	0

Sequence	recombinant UMI read abundance (log10)
CCTAGAGCATGGACCGGTTTTCCCGGTAATCCGTATTTGAT (site CCTACAGCTAT)	0.00404
CCTAGAGCATGGACCGGTTTTCCCGGTAATCCGTATTTGAT (site CCTAGAGCTAT)	0.00624
CCTAGAGCATGGACCGGTTTTCCCGGTAATCCGTATTTGAT (site CCTATAGCTAT)	0
CCTAGCACATGGACCGGTTTTCCCGGTAATCCGTATTTGGT (site CCTAGCACTAC)	0.00677
CCTAGGTCATGGACCGGTTTTCCCGGTAATCCGTATTTGAA (site CCTAGGTCTTT)	0.213
CCTAGTACATGGACCGGTTTTCCCGGTAATCCGTATTTGGC (site CCTAATACTGC)	0
CCTAGTACATGGACCGGTTTTCCCGGTAATCCGTATTTGGC (site CCTACTACTGC)	0
CCTAGTACATGGACCGGTTTTCCCGGTAATCCGTATTTGGC (site CCTAGTACTGC)	0
CCTAGTACATGGACCGGTTTTCCCGGTAATCCGTATTTGGC (site CCTATTACTGC)	0
CCTAGTTCATGGACCGGTTTTCCCGGTAATCCGTATTTGAA (site CCTAGTTCTTT)	0
CCTATGTCATGGACCGGTTTTCCCGGTAATCCGTATTTGTC (site CCTATGTCTGA)	0
CCTCACTCATGGACCGGTTTTCCCGGTAATCCGTATTTGCA (site CCTCACTCTTG)	0.399
CCTCATACATGGACCGGTTTTCCCGGTAATCCGTATTTGGC (site CCTAATACTGC)	0
CCTCATACATGGACCGGTTTTCCCGGTAATCCGTATTTGGC (site CCTCATACTGC)	0
CCTCATACATGGACCGGTTTTCCCGGTAATCCGTATTTGGC (site CCTGATACTGC)	0
CCTCATACATGGACCGGTTTTCCCGGTAATCCGTATTTGGC (site CCTTATACTGC)	0
CCTCTCTCATGGACCGGTTTTCCCGGTAATCCGTATTTGTA (site CATCTCTCTTA)	0.00925
CCTCTCTCATGGACCGGTTTTCCCGGTAATCCGTATTTGTA (site CCTCTCTCTTA)	0.53
